For test [1], the system named is aspirin-induced damage to the stomach. The test is described as follows: aspirin-induced damage to the stomach in the rat. Set-up: key to Gastric damage score (individual rat) / Gastric damage score, Mean: small haemorrhage 1, large haemorrhage 2, small ulcer 3, large ulcer 4 points. The format is in vivo. Conditions: for average reduction in gastric damage: vs control group; for Gastric damage score, Mean / Gastric damage score (individual rat): aspirin about 600 mg/kg orally, after 5 hours; for Gastric damage score, Mean: mean of eight rats; for Gastric damage score (individual rat): single animals. As for the experimental part: Three groups each containing eight rats were given aspirin in 0.5% CMC orally at a dose of about 600 mg/kg (1.0 ml of 60 mg/ml). The first group (the control group) was additionally given 0.5% CMC. The second group was given compound P57AS3 at a dose rate of 100 mg/kg; and the third group (comparative group) was given cimetidine at a dose rate of 20 mg/kg. […] Damage was assessed on a scale in which each small haemorrhage scored one point; each large haemorrhage scored two points; each small ulcer scored three points; and each large ulcer scored four points.

Test [2] concerns the target T1, M3 receptor (Cavia porcellus, UniProt H0W1Z3).
T1 construct: acetylcholine-induced contractions of the guinea pig ileum (M3 receptor mediated); from tissue; host or cells: isolated guinea pig ileum
Briefly: acetylcholine-induced contractions of the guinea pig ileum. Conditions: M3 receptor mediated. As for the experimental part:
(§1) Purified P57AS3 was examined for binding affinity to a variety of receptors, channels, and uptake sites in vitro. […], In isolated tissue studies, P57AS3 at concentrations ≦10 μM had no effect on the rate of spontaneously beating guinea pig right atria or on the force of contraction of electrically stimulated left atria. […] P57AS3 had no effect on resting tension of isolated guinea pig gallbladder, ileum or trachea, or on CCK octapeptide-induced contractions of the gallbladder (CCK-A receptor mediated), histamine induced contractions of the guinea pig ileum (H1 receptor mediated), or acetylcholine-induced contractions of the guinea pig ileum (M3 receptor mediated).

The subject of test [3] is isolated guinea pig gallbladder. The test is described as follows: isolated tissue: resting tension of gallbladder. As for the experimental part: as §1
The target in test [4] is T2, CCK-A receptor (Cavia porcellus, UniProt Q63931).
T2 construct: P57AS3 had no effect on resting tension of isolated guinea pig gallbladder, ileum or trachea; from tissue; host or cells: isolated guinea pig gallbladder
T2 sequence (Q63931 1-430): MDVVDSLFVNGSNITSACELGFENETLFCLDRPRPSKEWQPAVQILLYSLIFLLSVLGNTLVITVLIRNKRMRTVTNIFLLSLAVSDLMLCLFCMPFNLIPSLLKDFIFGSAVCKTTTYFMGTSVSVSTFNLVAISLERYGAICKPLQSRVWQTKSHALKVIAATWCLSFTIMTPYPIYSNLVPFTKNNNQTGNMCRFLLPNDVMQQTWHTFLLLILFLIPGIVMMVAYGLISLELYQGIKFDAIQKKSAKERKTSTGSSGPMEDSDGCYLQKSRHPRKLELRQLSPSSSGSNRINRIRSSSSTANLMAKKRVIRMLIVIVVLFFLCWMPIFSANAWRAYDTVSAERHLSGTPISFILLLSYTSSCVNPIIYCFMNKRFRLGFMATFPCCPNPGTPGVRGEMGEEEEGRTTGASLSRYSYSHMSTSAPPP
The test is described as follows: CCK octapeptide-induced contractions of the gallbladder. Also on record: species or system guinea pig. As to conditions: CCK-A receptor mediated. The procedure:
as §1

Test [5] relates to electrically stimulated left atria. The test is described as follows: isolated tissue: electrically stimulated left atria. Also on record: species or system guinea pig. The procedure: as §1
The subject of test [6] is gastric acid secretion. Briefly: gastric acid secretion in the pylorus-ligated rat. Format: in vivo. The procedure:
The effect of both the spray dried extract (sap from Hoodia gordonii)-referred to hereinafter as […]-and the purified compound P57AS3 were examined for effects on gastric acid secretion in the pylorus-ligated rat. Male Sprague-Dawley derived CD rats, 175-230 g, were used. On the day before the test, rats were outfitted with stainless steel tail cups to prevent coprophagy, housed individually with water allowed ad lib, and fasted overnight (18 hr). In one test the […] (5 or 50 mg/kg), or cimetidine (10 mg/kg) or vehicle (water) was orally administered to the rats immediately before fasting. Water was removed 30 minutes prior to ligation on the morning of the test. […] In a second experiment, purified compound P57AS3 was administered intraduodenally (i.d.) at 1 or 10 mg/kg at the time of the pylorus ligation. In this experiment with intraduodenal administration of P57AS3, vehicle (DMSO), cimetidine (10 mg/kg) or P57AS3 (1 or 10 mg/kg) was administered immediately after ligation. The incisions were then closed with staples. In the experiments with subcutaneous administration of P57, vehicle (DMSO), cimetidine (10 mg/kg) or P57, 10 or 30 mg/kg were injected subcutaneously in the nape of the neck immediately after the incisions were closed. Two hours after ligation, the rats were killed, the contents of each stomach collected and cleaned by centrifugation (30 minutes at 2000×g), and the volume of gastric fluid in each stomach was determined. Using a Radiometer pH meter and autotitrator, the pH and acid concentration of each gastric sample was determined by titration to pH 7 with 0.1N NaOH. Results are expressed as μeq/hr/100 g (body weight) and % vehicle control.

Test [7] deals with spontaneously beating guinea pig right atria. Briefly: isolated tissue: spontaneously beating right atria. Conditions: concentrations ≦10 μM. The procedure: as §1
Test [8] has as its system isolated guinea pig trachea. Briefly: isolated tissue: resting tension of trachea. As for the experimental part:
as §1

For test [9], the target named is T3, H1 receptor (Cavia porcellus, UniProt P31389).
T3 construct: histamine induced contractions of the guinea pig ileum (H1 receptor mediated); from tissue; host or cells: isolated guinea pig ileum
T3 sequence (P31389 whole entry): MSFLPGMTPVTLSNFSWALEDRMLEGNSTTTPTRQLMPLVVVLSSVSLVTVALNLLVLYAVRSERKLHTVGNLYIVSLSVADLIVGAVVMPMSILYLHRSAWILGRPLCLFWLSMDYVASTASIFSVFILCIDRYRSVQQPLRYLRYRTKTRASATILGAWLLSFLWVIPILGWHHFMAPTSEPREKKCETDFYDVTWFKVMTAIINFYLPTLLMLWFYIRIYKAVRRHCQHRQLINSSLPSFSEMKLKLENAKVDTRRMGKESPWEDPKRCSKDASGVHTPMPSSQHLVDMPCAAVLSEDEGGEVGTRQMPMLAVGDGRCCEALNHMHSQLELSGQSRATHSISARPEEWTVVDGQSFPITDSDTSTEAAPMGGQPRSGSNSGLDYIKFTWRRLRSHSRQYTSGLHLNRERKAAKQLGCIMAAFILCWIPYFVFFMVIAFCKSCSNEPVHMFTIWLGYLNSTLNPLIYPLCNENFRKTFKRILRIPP
The test is described as follows: histamine induced contractions of the guinea pig ileum. Conditions: H1 receptor mediated. As for the experimental part: as §1

Test [10] relates to M3 receptor. The test is described as follows: carbachol-induced contractions of the guinea pig trachea. As to conditions: M3 receptor mediated, concentrations ≧1 μM. The procedure: as §1
Test [11] relates to isolated guinea pig ileum. Briefly: isolated tissue: resting tension of ileum. As for the experimental part:
as §1

The mark [12] stands for this setting: 10 mg/kg sc, 1 of 3 experiments.

The results in this text go back to patent US6488967B1, “Gastric acid secretion” (Phytopharm PLC, priority 1999, dated 2002).

Values joined by “and” are separate entries in the source; they are usually repeats but may differ in a detail not shown here. Equal entries are not always repeated. “Also recorded” adds a separate entry of the source.

T1 sequence (H0W1Z3 1-590): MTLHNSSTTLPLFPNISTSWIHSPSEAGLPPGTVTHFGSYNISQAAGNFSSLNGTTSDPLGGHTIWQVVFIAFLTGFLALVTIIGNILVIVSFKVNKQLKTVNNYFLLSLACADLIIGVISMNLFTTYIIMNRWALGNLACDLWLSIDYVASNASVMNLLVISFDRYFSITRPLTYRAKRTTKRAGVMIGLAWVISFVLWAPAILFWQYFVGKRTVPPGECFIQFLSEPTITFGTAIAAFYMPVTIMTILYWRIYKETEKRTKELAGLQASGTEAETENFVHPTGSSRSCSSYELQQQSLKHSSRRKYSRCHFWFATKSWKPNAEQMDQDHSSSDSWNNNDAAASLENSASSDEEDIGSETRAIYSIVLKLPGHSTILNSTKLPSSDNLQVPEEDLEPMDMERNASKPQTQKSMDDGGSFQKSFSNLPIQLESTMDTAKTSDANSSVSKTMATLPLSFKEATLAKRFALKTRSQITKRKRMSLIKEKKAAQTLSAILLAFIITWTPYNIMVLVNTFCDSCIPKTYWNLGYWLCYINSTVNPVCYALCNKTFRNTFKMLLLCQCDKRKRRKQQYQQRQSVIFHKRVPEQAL

With `CN/C(=N/CCSCc1nc[nH]c1C)NC#N` [Cimetidine, cimetidine, reference compound], the “average reduction in gastric damage” value in test [1] (20 mg/kg) came out at 93.2%. In addition, in test [1] (oral 20 mg/kg), the “Gastric damage score, Mean” value was found to be 0.50; the “Gastric damage score (individual rat)” value is 0 (7×) and 4.

Regarding `C/C=C(\C)C(=O)O[C@@H]1C[C@H]2[C@@H](CC=C3C[C@@H](O[C@H]4C[C@H](OC)[C@H](O[C@H]5C[C@H](OC)[C@H](O[C@@H]6O[C@H](C)[C@@H](O)[C@H](OC)[C@H]6O)[C@@H](C)O5)[C@@H](C)O4)CC[C@@]32C)[C@@]2(O)CC[C@H](C(C)=O)[C@@]12C` [P57AS3, 3-O-[-β-D-thevetopyranosyl-(1→4)-β-D-cymaropyranosyl-(1→4)-β-D-cymaropyranosyl]-12β-O-tigloyloxy-14-hydroxy-14β-pregn-5-en-20-one], the “effect on acetylcholine-induced contractions of the ileum” value in [2] was “no effect”. Besides, in [3], the “effect on resting tension of gallbladder” value is recorded as “no effect”. Besides, in [4], the “effect on CCK octapeptide-induced contractions of the gallbladder” value was “no effect”. In test [5] (concentrations of 1 μM and higher), the “effect on basal tension of electrically stimulated left atria” value is “intermittent and transient elevations”. The “effect on the force of contraction of electrically stimulated left atria” value in [5] (concentrations ≦10 μM) is “no effect”. Also, the “average reduction in gastric damage” value in [1] (100 mg/kg) is on record as 91.5%. Also, in test [1] (oral 100 mg/kg), the “Gastric damage score, Mean” value is given as 0.63. Besides, the “Gastric damage score (individual rat)” value in [1] (oral 100 mg/kg) is 0 (6×) and 3 and 2. The “effect on gastric acid secretion” value in test [6] (1 mg/kg i.d. at the time of pylorus ligation) is given as “no effect”; in [6] (setting [12]), “significant decrease”. Also, in test [6] (10 mg/kg i.d. at the time of pylorus ligation), the “decrease of acid secretion (acid output)” value stood at 88%. The “reduction of gastric acid secretion” value in test [6] (setting [12]) was 43%. The “effect on gastric acid output” value in test [6] (10 mg/kg sc, 2 of 3 experiments) was “not significantly different from vehicle-treated controls; also recorded: no effect”; in test [6] (30 mg/kg sc, one experiment), “not significantly different from vehicle-treated controls; also recorded: no effect”. For the same compound, the “Acid Output % Control mean ± sd” value in [6] (Exp. II, 1 mg/kg id) is listed as 109.0 ± 37.8 % Control; in test [6] (Exp. II, 10 mg/kg id) it was 12.4 ± 1.1 % Control; in [6] (Exp. III, 10 mg/kg sc), 48.9 ± 29.2 % Control; in test [6] (Exp. IV, 10 mg/kg sc), 74.0 ± 38.0 % Control; in test [6] (Exp. V, 10 mg/kg sc) it was “*57.1 ± 19.8 % Control”; in [6] (Exp. VI, 30 mg/kg sc), 63.7 ± 17.3 % Control. For the same compound, the “effect on the rate of spontaneously beating right atria” value in test [7] is “no effect”. For the same compound, in test [8], the “effect on resting tension of trachea” value is recorded as “no effect”. Moreover, the “effect on histamine induced contractions of the ileum” value in test [9] is “no effect”. For the same compound, in test [10], the “effect on carbachol-induced contractions of the trachea” value is “noncompetitively inhibited”. The “effect on resting tension of ileum” value in [11] is reported as “no effect”.
